The term IC50 denotes the midpoint of a concentration-inhibition curve.

Molecules are shown by their SMILES. Where a name gives a salt, the structure may show the parent alone.

T1 sequence (Q9R1M7 24-1135, other chains not shown): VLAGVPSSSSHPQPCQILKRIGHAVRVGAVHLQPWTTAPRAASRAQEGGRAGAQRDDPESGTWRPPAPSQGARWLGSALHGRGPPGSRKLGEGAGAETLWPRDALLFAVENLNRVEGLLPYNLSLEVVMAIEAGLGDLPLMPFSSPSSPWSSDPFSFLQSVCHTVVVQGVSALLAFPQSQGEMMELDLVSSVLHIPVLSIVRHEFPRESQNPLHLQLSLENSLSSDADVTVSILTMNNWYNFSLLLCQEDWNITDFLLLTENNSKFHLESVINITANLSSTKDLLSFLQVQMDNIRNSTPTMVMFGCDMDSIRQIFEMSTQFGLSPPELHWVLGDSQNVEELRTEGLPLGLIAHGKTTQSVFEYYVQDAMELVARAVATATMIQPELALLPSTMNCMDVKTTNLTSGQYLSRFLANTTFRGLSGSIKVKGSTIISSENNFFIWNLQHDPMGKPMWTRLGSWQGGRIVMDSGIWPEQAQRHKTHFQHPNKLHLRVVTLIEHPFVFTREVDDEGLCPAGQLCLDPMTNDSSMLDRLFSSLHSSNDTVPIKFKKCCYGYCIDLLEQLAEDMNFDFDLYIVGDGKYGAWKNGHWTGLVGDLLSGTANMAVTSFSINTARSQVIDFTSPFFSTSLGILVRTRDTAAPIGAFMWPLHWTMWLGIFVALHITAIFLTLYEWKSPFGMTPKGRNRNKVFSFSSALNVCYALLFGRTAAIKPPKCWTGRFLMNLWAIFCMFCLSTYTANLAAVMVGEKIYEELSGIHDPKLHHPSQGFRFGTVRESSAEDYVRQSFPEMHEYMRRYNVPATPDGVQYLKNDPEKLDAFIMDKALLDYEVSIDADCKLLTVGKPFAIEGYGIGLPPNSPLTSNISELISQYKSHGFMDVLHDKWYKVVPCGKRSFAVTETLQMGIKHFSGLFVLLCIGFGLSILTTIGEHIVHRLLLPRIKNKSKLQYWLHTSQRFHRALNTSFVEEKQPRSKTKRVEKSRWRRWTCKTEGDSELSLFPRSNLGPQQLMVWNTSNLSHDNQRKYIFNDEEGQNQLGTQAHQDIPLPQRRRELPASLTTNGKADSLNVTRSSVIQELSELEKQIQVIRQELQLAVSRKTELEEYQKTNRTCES

One assay addresses GluN1/GluN3 receptors.
Experiment: not given
Further details: method as in Zhu et al., 2020. Particulars: ref Zhu et al., 2020; cited from earlier work.
Consider `COc1ccc(OCC(c2ccc(OC)cc2)N2Cc3ccccc3C2=O)cc1` (stereo not shown) [EU1180-438], for which the IC50 was 1800 ± 300 nM.

The target of a further assay is T1, GluN1/GluN3A receptors (UniProt Q05586+Q9R1M7). The experiment in a line: Whole-cell patch-clamp recording on GluN1/GluN3A Flp-in T-REx 293 stable cell lines. Also on record: expressed in transfected cells. The note with it: 3 μM compound; whole-cell patch-clamp; mean ± SEM; drug application order as in FDSS/μCell Ca2+ imaging (CGP-78608, then glycine). The class given is cell-based, human GluN1-1a, rat GluN3A. As for the experimental part:
To establish GluN1/GluN3A stable cell lines, the human GluN1-1a (GenBank: NP_015566.1) and the rat GluN3A (GenBank: NP_612555.1) genes were subcloned into the pcDNA5-FRT-To and pcDNA3.1 vectors, respectively. An EGFP tag was added to the C-terminus of GluN1 or GluN3A using a T2A linker for identification of transfected cells during transient transfection. Point mutations were introduced by site-directed mutagenesis using PrimeSTAR (Takara). The human GluN2A (GenBank: NP_000824.1) gene was subcloned into the pcDNA3.1 vector. The chimeras GluN3A^670-673 MWPL/LEPF and GluN2A^550-553 LEPF/MWPL were generated using In-Fusion HD Cloning kits (Takara). All constructs were confirmed by DNA sequencing (Beijing Genomics Institute).
The Flp-in T-Rex 293 cell lines (Invitrogen), stably expressing GluN1/GluN3A were grown in DMEM basal medium (Gibco) supplemented with 10% fetal bovine serum (FBS, Invitrogen), 15 μg/ml blasticidin S (Invitrogen), 50 μg/ml hygromycin B (Invitrogen) and 500 μg/ml G418 (Gibco). Expression in cell lines was induced with 1 μg/ml doxycycline (Invitrogen) 24–28 h prior to the experiments. Chinese hamster ovary (CHO) cells were grown in DMEM-F12 basal medium (Gibco) supplemented with 10% FBS. In the study on the action sites of WZB117, all whole-cell patch-clamp recordings were performed on CHO cells. The transfections were carried out using Lipofectamine 3000 transfection reagent (Thermo Fisher) according to the manufacturer’s instructions. All cells mentioned above were cultured in a 5% CO2 incubator at 37°C and passaged every other day at a ratio of 1:3.
Whole-cell patch-clamp recordings were performed at room temperature (22–25°C) using an EPC-10 amplifier and Patch Master Software (HEKA). Pipettes were pulled from borosilicate glass capillaries (World Precision Instruments), and the resistances were 3–5 MΩ when filled with the intracellular solution. The extracellular solution contained (in mM): 140 NaCl, 2.8 KCl, 1 CaCl2, 10 HEPES and 20 sucrose (290–300 mOsm), pH adjusted to 7.3 using NaOH. The pipette solution contained (in mM): 115 CsF, 10 CsCl, 10 HEPES and 10 BAPTA (280–290 mOsm), pH adjusted to 7.2 using CsOH ([Grand et al., 2018]). When recording in hippocampal neurons, the extracellular solution contained (in mM): 140 NaCl, 5 KCl, 1 CaCl2, 1.25 MgCl2, 10 glucose, and 10 HEPES, and the pH was adjusted to 7.4 using NaOH, and the pipette solution contained (in mM): 140 KCl, 1 MgCl2, 10 EGTA, and 10 HEPES, and the pH was adjusted to 7.2 using KOH ([Xie et al., 2020]). Drug-containing solutions were applied through an RSC-200 Rapid Solution Changer with a 9-tube head (BioLogic Co., France), in which the cell is positioned close to the output of a capillary. The solution, containing either one drug or a combination of different drugs, to be assayed flows out of the capillary at a moderate flow rate by gravity. The lifted cell, exposed to this stream, rapidly equilibrates in the perfusion solution. Whole-cell patch-clamp recordings in heterologous cells and hippocampal neurons were performed at a holding potential of −60 mV. Currents were sampled at 10 kHz and low pass filtered at 2.9 kHz. To record the native GluN1/GluN3 receptor-mediated currents, the extracellular solution was supplemented with 10 μM bicuculline (Sigma-Aldrich), 2 μM NBQX (Topscience), 100 μM D-APV (MCE), and 50 μM strychnine (UHN Shanghai) to block γ-aminobutyric acid type A (GABAA), α-amino-3-hydroxy-5-methylisoxazole-4-propionate (AMPA), GluN1/GluN2 NMDA and glycine receptors, respectively. To record the native GluN2-NMDARs-mediated currents, 10 μM bicuculline and 2 μM NBQX were added into the extracellular solution to block GABAA receptors and AMPA receptors, respectively ([Grand et al., 2018]; [Otsu et al., 2019]; [Zhu et al., 2020]).
Patch-clamp data were processed using Clampfit 10.4 (Molecular Device, Sunnyvale, CA, United States) and analyzed with GraphPad Prism 5.0 (GraphPad Software, San Diego, CA, United States). […]
A general note: In patch-clamp work, channel activity is measured electrically.
Regarding `COc1ccc(S(=O)(=O)N(CCO)c2ccccc2CN(C)C/C=C/c2ccc(Cl)cc2)cc1.O=P(O)(O)O` [KN93 Phosphate], the “I drug/I control” value is listed as 0.90 ± 0.02.
The same measure, in the same setting: the value for `CCCCCCCCCCCCCCCCn1cc[n+](Cc2ccccc2)c1C.[I-]` [NH125] was 0.84 ± 0.03.

The assay is the same for the next values; noted with them: Flp-In-T-REx-293; read-out: I drug/I control.
`O=C(O)c1cc(O)c2c(c1)C(=O)c1cccc(O)c1C2=O` [Rhein]: the remaining activity at 3 µM stood at 80 ± 4%.
Take `Cc1[nH]c(/C=C2\C(=O)Nc3ccccc32)c(C)c1CCC(=O)O` [SU6668]: the remaining activity at 3 µM is 89 ± 4%.
In the case of `NC(=O)N1CCC(CC(=O)N2CCC([C@H]3c4ncc(Br)cc4CCc4cc(Cl)cc(Br)c43)CC2)CC1` [Lonafarnib], the remaining activity at 3 µM came to 98 ± 2%.
The same measure, in the same setting: as for `CNc1nc(-c2ccc3c(N)n[nH]c3c2)cc(N2C[C@@H](C(=O)NC3CCCCC3)CC[C@H]2C)n1` [GSK2334470], the figure is 84 ± 4%; as for `Oc1ccc(-c2nc3cc(O)cc(Br)c3o2)cc1` [WAY200070, 7-bromo-2-(4-hydroxyphenyl) benzoxazol-5-ol], 53 ± 2%.
On to `Cc1ccc(CN(Cc2ccc(-c3ccccc3S(=O)(=O)NC#N)cc2)C(=O)c2ccccc2Cl)cc1` [S0859, 2-chloro-N-[2'-(N-cyanosulfamoyl)biphenyl-4-ylmethyl]-N-(4-methylbenzyl) benzamide], for which the remaining activity at 3 µM is 48 ± 2%.
With `CC(C)c1cc(C(C)C)c(CC(=O)NS(=O)(=O)Oc2c(C(C)C)cccc2C(C)C)c(C(C)C)c1` [Avasimibe], the remaining activity at 3 µM worked out at 86 ± 3%.
In the case of `CC(C)(O)CC(=O)NCCn1ccc2ncnc(Nc3ccc(Oc4cccc(C(F)(F)F)c4)c(Cl)c3)c21` [TAK285], the remaining activity at 3 µM was determined as 92 ± 6%.
On the same count and under the same terms, as for `COc1cc(OC)c(C=C2C(O)=Nc3ccccc32)c(OC)c1` [IC261], the figure is 88 ± 1%.
As to `Nc1n[n+]([O-])c2ccccc2[n+]1[O-]` [Tirapazamine], the remaining activity at 3 µM came to 103 ± 5%.

A further assay addresses T1, GluN1/GluN3A receptors. As to the kind of experiment: High-throughput Fluo-4 calcium assay (FDSS/μCell) in HEK-293 cells stably expressing GluN1/GluN3A. The format is cell-based, human GluN1-1a, rat GluN3A. Further details: expressed in transfected cells. Particulars: primary and secondary screening. As for the experimental part: The HEK-293 cells stably expressing GluN1/GluN3A receptors were seeded at a density of 10,000 cells/well in the 384-well plates, and expression was induced with 1 μg/ml doxycycline for 24–28 h. Then the culture medium was removed, Fluo-4 (Invitrogen) was loaded and the cells were incubated in the 37°C incubator away from light for 1 h ([Gee et al., 2000]). The plates were gently washed twice with Ca^2+-free buffer and then incubated with one of the 2560 compounds (from the Chinese National Compound Library) or DMSO (1% and 0.33%) for 20 min. A fixed concentration of 30 μM and dual concentrations of 10 μM and 30 μM were applied in the primary and secondary screening, respectively. Two replicates were set up for each condition. […] A FDSS/μCell platform (Hamamatsu) was used to measure the fluorescence signals. The excitation (Ex) and emission (Em) wavelengths were set to 480 and 540 nm, respectively. The inhibitory effects of tested compounds were compared by the ratios of fluorescence (F) with (F drug) and without (F control) the compounds. The F control value in these assays represented the value of basal Fluo-4 fluorescence plus glycine-stimulated fluorescence, and the F drug indicated the total Fluo-4 fluorescence after treatment of the drugs. Both the F drug and F control values were taken at the peak. The Ca^2+-free buffer used to dilute Fluo-4 and wash cell-plates contained (in mM): 140 NaCl, 5 KCl, 1 MgCl2, 10 glucose, 10 HEPES, and 0.5 EGTA. The pH was adjusted to 7.2 using NaOH. To dilute the compounds, 2 mM of free Ca^2+ was added in addition to the other components of the buffer.
Turning to `CCOC(=O)Nc1ccc(NCc2ccc(F)cc2)nc1N` [flupirtine maleate], the “identification in HTS” value was “identified in both the primary screening and secondary screening”.
With `O=c1[nH]c2cc(Cl)ccc2c(O)c1-c1cccc(Oc2ccccc2)c1` [L-701324], the “identification in HTS” value was “identified in both the primary screening and secondary screening”.
Consider `O=C(O)c1cc(=O)c2c(Cl)cc(Cl)cc2[nH]1` [5,7-DCKA], for which the “identification in HTS” value is “identified in both the primary screening and secondary screening”.
As to `N[C@H](CO)C(=O)O` [D-serine], the “identification in HTS” value was “identified in both the primary screening and secondary screening”.
Still for that read-out and setting: the value for `Nc1nc2ccc(OC(F)(F)F)cc2s1` [riluzole] was “identified in both the primary screening and secondary screening”.

The test system of another assay is GluN3A.
Experiment: not given
The note with it: ref Yao and Mayer, 2006; cited from earlier work.
Take `NCC(=O)O` [glycine]: the “higher affinity for GluN3A than for GluN1” value is 650 fold.

(Values after article PMC9218946, “Identification of a Subtype-Selective Allosteric Inhibitor of GluN1/GluN3 NMDA Receptors” (Frontiers in Pharmacology, 2022).)
